{
  "source": "patent US20010020013A1",
  "about": "“Ortho-diphenol compounds, methods and pharmaceutical compositions for inhibiting parp” (GUILFORD PHARMACEUTICALS, INC., priority 1998, published 2001)",
  "key": {"[1]": {"system": "C57/BL male mice", "experiment": "Septic shock assay (LPS plus galactosamine challenge), mortality", "type": "in vivo, mouse", "conditions": "60, 20, 6 and 2 mg/kg daily IP for three days, first dose 30 min after challenge", "experimental": "Groups of 10 C57/BL male mice weighing 18 to 20 g were administered a test compound, 1-carboxynaphthalene-1-carboxamide at the doses of 60, 20, 6 and 2 mg/kg, daily, by intraperitopeal (IP) injection for three consecutive days. Each animal was first challenged with lipopolysaccharide (LPS, from E. Coli, LD100 of […] IV) plus galactosamine (20 mg/animal IV). The first dose of test compound in a suitable vehicle was given 30 minutes after challenge, and the second and third doses were given 24 hours later on day 2 and day 3 respectively, with only the surviving animals receiving the second or third dose of the test compound. Mortality was recorded every 12 hours after challenge for the three-day testing period. 1-Carboxy-naphthalene-1-carboxamide provided a protection against mortality from septic shock of about 40%."}, "[2]": {"system": "human fibroblast cells lines (W138 or BJ cells)", "experiment": "Extending proliferative capacity and lifespan of cells", "type": "cell-based", "conditions": "untreated cells stop dividing after about 40 days", "experimental": "At the time of subdivision, the media is aspirated, and the cells rinsed with phosphate buffer saline (PBS) and then trypsinized. The cells are counted with a Coulter counter and plated at a density of 10^5 cells per cm^2 in 6-well tissue culture plates in DMEM/199 medium supplemented with 10% bovine calf serum and varying amounts ([…]: from a 100X stock solution in DMEM/M199 medium) of a PARP inhibitor of Formula I as disclosed herein. This process is repeated every 7 days until the cell appear to stop dividing. The untreated (control) cells reach senescence and stop dividing after about 40 days in culture."}, "[3]": {"system": "male Long-Evans rats", "experiment": "Neuroprotective effect of DPQ on focal cerebral ischemia (distal MCA cauterization plus bilateral CCA occlusion), TTC infarct area and volume", "type": "in vivo, rat", "experimental": "Focal cerebral ischemia was produced by cauterization of the right distal MCA (middle cerebral artery) with bilateral temporary common carotid artery occlusion in male Long-Evans rats for 90 minutes. All procedures performed on the animals were approved by the University Institutional Animal Care and Use Committee of the University of Pennsylvania. A total of 42 rats (weights: 230-340 g) obtained from Charles River were used in this study. The animals fasted overnight with free access to water prior to the surgical procedure.\nTwo hours prior to MCA occlusion, varying amounts (control, n=14; 5 mg/kg, n=7; 10 mg/kg, n=7; 20 mg/kg, n=7; and 40 mg/kg, n=7) of the compound, 3,4-dihydro-5-[4-(1-piperidinyl)-butoxy]-1 (2H)-isoquinolinone (“DPQ”) were dissolved in dimethyl sulfoxide (DMSO) using a sonicator. A volume of 1.28 ml/kg of the resulting solution was injected intraperitoneally into fourteen rats.\nFocal cerebral ischemia was produced by cauterization of the distal portion of the right MCA with bilateral temporary common carotid artery (CCA) occlusion by the procedure of Chen et al., “A Model of Focal Ischemic Stroke in the Rat: Reproducible Extensive Cortical Infarction”, Stroke 17:738-43 (1986) and/or Liu et al., “Polyethylene Glycol-conjugated Superoxide Dismutase and Catalase Reduce Ischemic Brain Injury”, Am. J. Physiol. 256:H589-93 (1989), both of which are hereby incorporated by reference. […]\nTwo hours after MCA occlusion, the animals were given the same doses of the PARP inhibitor as in the pre-treatment. […] To avoid artifacts due to edema, the damaged area was calculated by subtracting the area of the normal tissue in the hemisphere ipsilateral to the stroke from the area of the hemisphere contralateral to the stroke, by the method of Swanson et al., “A Semiautomated Method for Measuring Brain Infarct Volume”, J. Cereb. […] The total volume of infarction was calculated by summation of the damaged volume of the brain slices."}},
  "data": [
    {"smiles": "NC(=O)C1(C(=O)O)CC=Cc2ccccc21", "note": "(stereo not shown) [1-Carboxy-naphthalene-1-carboxamide, 1-carboxynaphthalene-1-carboxamide]", "values": [
      {"measurement": "protection against mortality from septic shock", "setting": "[1]", "result": "about 40%"}
    ]},
    {"smiles": "NC(=O)c1cccc(N)c1", "note": "[3-amino-benzamide]", "values": [
      {"measurement": "effect on lifespan of the cells", "setting": "[2]; 10 μM", "result": "little or no effect"},
      {"measurement": "effect on lifespan of the cells", "setting": "[2]; 100 μM", "result": "lengthen the lifespan of the cells"},
      {"measurement": "time in culture at which cells still divide", "setting": "[2]; 1 mM", "result": "still divide after 60 days"}
    ]},
    {"smiles": "O=C1NCCc2c(OCCCCN3CCCCC3)cccc21", "note": "[DPQ, 3,4-dihydro-5-[4-(1-piperidinyl)-butoxy]-1 (2H)-isoquinolinone]", "values": [
      {"measurement": "distribution of the cross-sectional infarct area (FIG. 1 curve)", "setting": "[3]; 5 mg/kg", "result": "approximately halfway between the control and the 10 mg/kg curves"},
      {"measurement": "distribution of the cross-sectional infarct area (FIG. 1 curve)", "setting": "[3]; 20 mg/kg", "result": "approximately halfway between the control and the 10 mg/kg curves"},
      {"measurement": "distribution of the cross-sectional infarct area (FIG. 1 curve)", "setting": "[3]; 40 mg/kg", "result": "close to the control"}
    ]}
  ]
}
